In the experiment the target is hcGAS (Homo sapiens, UniProt Q8N884). As to the kind of experiment: hcGAS LCMS assay (direct measurement of cGAMP production by LC/MS). The class given is biochemical. In short, it runs like this:
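Enzyme, substrates (ATP, GTP) and compound incubated 4 h, then quenched with acetonitrile/water containing 0.15 uM 13C/15N-labeled cGAMP internal standard. cGAMP formed quantified directly by LC/MS on HILIC amide column; IC50 values reported in potency bins.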

[1] abbreviates: 4 h incubation with enzyme and substrates, cGAMP production by LC/MS, class symbols, read-out: hcGAS LCMS IC50.

From US20260327221A1, “INHIBITORS OF CYCLIC GMP-AMP SYNTHASE AND USES THEREOF” (Ventus Therapeutics U.S., Inc., priority 2023, published 2026) come the findings set out here.

Read-outs that look alike come from different tables or passages of the source.

hcGAS, sequence (Q8N884 whole entry): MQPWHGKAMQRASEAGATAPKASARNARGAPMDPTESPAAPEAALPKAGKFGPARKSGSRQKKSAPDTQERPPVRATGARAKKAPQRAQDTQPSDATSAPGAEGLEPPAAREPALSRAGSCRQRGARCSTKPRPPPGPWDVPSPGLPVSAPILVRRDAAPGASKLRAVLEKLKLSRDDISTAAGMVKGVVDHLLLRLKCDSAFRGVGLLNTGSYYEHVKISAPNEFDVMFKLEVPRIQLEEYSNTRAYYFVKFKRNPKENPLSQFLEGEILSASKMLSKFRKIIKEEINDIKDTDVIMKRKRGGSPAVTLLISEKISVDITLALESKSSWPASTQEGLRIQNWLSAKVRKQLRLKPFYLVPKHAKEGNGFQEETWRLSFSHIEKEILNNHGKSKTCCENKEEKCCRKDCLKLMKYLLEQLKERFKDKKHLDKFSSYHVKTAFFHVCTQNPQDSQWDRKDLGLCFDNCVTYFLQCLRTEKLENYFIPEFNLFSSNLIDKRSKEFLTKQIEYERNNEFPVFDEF

By IC50 is commonly meant the point on the concentration scale where inhibition reaches its midpoint. `COc1cccc(OC)c1-c1cc(C(=O)Nc2nnc(-n3nccc3N)s2)oc(=O)c1O[C@H]1CCOC1` [52A*, (S)-N-(5-(5-amino-1H-pyrazol-1-yl)-1,3,4-thiadiazol-2-yl)-4-(2,6-dimethoxyphenyl)-2-oxo-3-((tetrahydrofuran-3-yl)oxy)-2H-pyran-6-carboxamide]: the IC50 under setting [1] is less than 0.5 nM.
With `COc1cccnc1-c1cc(C(=O)Nc2nnc(-n3nccc3N)s2)oc(=O)c1O[C@@H]1CCC[C@H](OC)C1` (single isomer, unassigned) [113D*], the half-inhibitory concentration (IC50) under setting [1] was in the range of 5 to 20 nM.
On the same count and under the same terms, as for `COCCOCCOc1c(-c2c(OC)cccc2OC)cc(C(=O)Nc2nnc(-n3nccc3N)s2)oc1=O` [Compound 30, N-(5-(5-amino-1H-pyrazol-1-yl)-1,3,4-thiadiazol-2-yl)-4-(2,6-dimethoxyphenyl)-3-(2-(2-methoxyethoxy)ethoxy)-2-oxo-2H-pyran-6-carboxamide], the figure is 0.5 to 1 nM.
For the molecule `COCC(COC)Oc1c(-c2c(OC)cccc2OC)cc(C(=O)Nc2nnc(-n3nccc3N)s2)oc1=O` [Compound 20, N-(5-(5-amino-1H-pyrazol-1-yl)-1,3,4-thiadiazol-2-yl)-4-(2,6-dimethoxyphenyl)-3-((1,3-dimethoxypropan-2-yl)oxy)-2-oxo-2H-pyran-6-carboxamide], the concentration for half-maximal inhibition (IC50) under setting [1] lay within 1 to 5 nM.
The same measure, in the same setting: as for `COC[C@H](CO)COc1c(-c2c(OC)cccc2OC)cc(C(=O)Nc2nnc(-n3nccc3N)s2)oc1=O` [92B*, (S)-N-(5-(5-amino-1H-pyrazol-1-yl)-1,3,4-thiadiazol-2-yl)-4-(2,6-dimethoxyphenyl)-3-(3-hydroxy-2-(methoxymethyl)propoxy)-2-oxo-2H-pyran-6-carboxamide], the figure is 1 to 5 nM; as for `COCCOc1c(-c2c(OC)cccc2OC)cc(C(=O)Nc2nnc(-c3ncsc3N)s2)oc1=O` [Compound 51, N-(5-(5-aminothiazol-4-yl)-1,3,4-thiadiazol-2-yl)-4-(2,6-dimethoxyphenyl)-3-(2-methoxyethoxy)-2-oxo-2H-pyran-6-carboxamide], 0.5 to 1 nM; as for `COc1cccnc1-c1cc(C(=O)Nc2nnc(-n3nccc3N)s2)oc(=O)c1O[C@@H]1CC[C@H](O)C1` (single isomer, unassigned) [111A*], 0.5 to 1 nM.
Consider `COc1cccc(OC)c1-c1cc(C(=O)Nc2nnc(-n3nccc3N)s2)oc(=O)c1OC[C@H]1CCCO1` [56B*, (R)-N-(5-(5-amino-1H-pyrazol-1-yl)-1,3,4-thiadiazol-2-yl)-4-(2,6-dimethoxyphenyl)-2-oxo-3-((tetrahydrofuran-2-yl)methoxy)-2H-pyran-6-carboxamide], for which the IC50 under setting [1] is 0.5 to 1 nM.
Still for that read-out and setting: for `COc1cccc(OC)c1-c1cc(C(=O)Nc2nnc(-n3nccc3N)s2)oc(=O)c1OCCCN1CCSCC1` [Compound 88, N-(5-(5-amino-1H-pyrazol-1-yl)-1,3,4-thiadiazol-2-yl)-4-(2,6-dimethoxyphenyl)-2-oxo-3-(3-thiomorpholinopropoxy)-2H-pyran-6-carboxamide] the value was 0.5 to 1 nM; for `COc1cccc(OC)c1-c1cc(C(=O)Nc2nnc(-n3nccc3N)s2)oc(=O)c1OCCN1CCSCC1CO` (stereo not drawn) [96A*/96B*], 1 to 5 nM.
On the same count and under the same terms, as for `COc1cccnc1-c1cc(C(=O)Nc2nnc(-n3nccc3N)s2)oc(=O)c1OCCOC(F)F` [Compound 61, N-(5-(5-amino-1H-pyrazol-1-yl)-1,3,4-thiadiazol-2-yl)-3-(2-(difluoromethoxy)ethoxy)-4-(3-methoxypyridin-2-yl)-2-oxo-2H-pyran-6-carboxamide], the figure is 1 to 5 nM; as for `COC[C@@H](CO)COc1c(-c2c(OC)cccc2OC)cc(C(=O)Nc2nnc(-n3nccc3N)s2)oc1=O` [92A*, (R)-N-(5-(5-amino-1H-pyrazol-1-yl)-1,3,4-thiadiazol-2-yl)-4-(2,6-dimethoxyphenyl)-3-(3-hydroxy-2-(methoxymethyl)propoxy)-2-oxo-2H-pyran-6-carboxamide], 0.5 to 1 nM; as for `COc1cccnc1-c1cc(C(=O)Nc2nnc(-n3nccc3N)s2)oc(=O)c1O[C@@H]1CC[C@@H](O)C1` (single isomer, unassigned) [112A*], 1 to 5 nM.
For the molecule `COCCOc1c(-c2c(C#N)cccc2OC(F)F)cc(C(=O)Nc2nnc(-n3nccc3N)s2)oc1=O` [Compound 74, N-(5-(5-amino-1H-pyrazol-1-yl)-1,3,4-thiadiazol-2-yl)-4-(2-cyano-6-(difluoromethoxy)phenyl)-3-(2-methoxyethoxy)-2-oxo-2H-pyran-6-carboxamide], the IC50 under setting [1] fell in the range of 0.5 to 1 nM.
Still for that read-out and setting: for `COc1cccc(OC)c1-c1cc(C(=O)Nc2nnc(-n3nccc3N)s2)oc(=O)c1OCC1(OC)CC1` [Compound 42, N-(5-(5-amino-1H-pyrazol-1-yl)-1,3,4-thiadiazol-2-yl)-4-(2,6-dimethoxyphenyl)-3-((1-methoxycyclopropyl)methoxy)-2-oxo-2H-pyran-6-carboxamide] the value was 0.5 to 1 nM.
On to `COC[C@@H](CO)Oc1c(-c2c(OC)cccc2OC)cc(C(=O)Nc2nnc(-n3nccc3N)s2)oc1=O` [Compound 62B*, (R)—N-(5-(5-amino-1H-pyrazol-1-yl)-1,3,4-thiadiazol-2-yl)-4-(2,6-dimethoxyphenyl)-3-((1-hydroxy-3-methoxypropan-2-yl)oxy)-2-oxo-2H-pyran-6-carboxamide], for which the half-maximal inhibitory concentration (IC50) under setting [1] lay within 0.5 to 1 nM.
Turning to `COCCOc1c(-c2c(OC)cncc2OC)cc(C(=O)Nc2nnc(-n3nccc3N)s2)oc1=O` [Compound 28, N-(5-(5-amino-1H-pyrazol-1-yl)-1,3,4-thiadiazol-2-yl)-4-(3,5-dimethoxypyridin-4-yl)-3-(2-methoxyethoxy)-2-oxo-2H-pyran-6-carboxamide], the half-inhibitory concentration (IC50) under setting [1] was in the range of 1 to 5 nM.
Regarding `COc1cccc(OC)c1-c1cc(C(=O)Nc2nnc(-n3nccc3N)s2)oc(=O)c1O[C@@H]1CCC[C@H]1O` (single isomer, unassigned) [71B*], the IC50 under setting [1] fell in the range of 0.5 to 1 nM.
For `COC[C@H](O)COc1c(-c2c(OC)cccc2OC)cc(C(=O)Nc2nnc(-n3nccc3N)s2)oc1=O` [Compound 63A*, (S)—N-(5-(5-amino-1H-pyrazol-1-yl)-1,3,4-thiadiazol-2-yl)-4-(2,6-dimethoxyphenyl)-3-(2-hydroxy-3-methoxypropoxy)-2-oxo-2H-pyran-6-carboxamide], under setting [1], the IC50 fell in the range of 0.5 to 1 nM.
For `COCCOc1c(-c2c(Cl)cccc2OC)cc(C(=O)Nc2nnc(-n3nccc3N)s2)oc1=O` (single isomer, unassigned) [Compound 15A*, (Ra)—N-(5-(5-amino-1H-pyrazol-1-yl)-1,3,4-thiadiazol-2-yl)-4-(2-chloro-6-methoxyphenyl)-3-(2-methoxyethoxy)-2-oxo-2H-pyran-6-carboxamide], the half-maximal inhibitory concentration (IC50) under setting [1] is less than 0.5 nM.
As for `COCCOc1c(-c2c(O)cccc2Cl)cc(C(=O)Nc2nnc(-n3nccc3N)s2)oc1=O` [Compound 41, N-(5-(5-amino-1H-pyrazol-1-yl)-1,3,4-thiadiazol-2-yl)-4-(2-chloro-6-hydroxyphenyl)-3-(2-methoxyethoxy)-2-oxo-2H-pyran-6-carboxamide], the half-maximal inhibitory concentration (IC50) runs as follows: under setting [1], less than 0.5 nM; (hcGAS 0.5 nM, ATP 100 μM, GTP 100 μM, dsDNA 25 nM, pH 7.4, 4 h incubation, read-out: hcGAS inhibition IC50 (activity class, Table D)) less than 0.5 nM. Also, where the note is “compared with Compound 1, from activity classes of Table D”, the “cGAS potency relative to Compound 1” value is “improved cGAS potency”.
On to `COCCOc1c(-c2ncccc2OC2CC2)cc(C(=O)Nc2nnc(-n3nccc3N)s2)oc1=O` [Compound 70, N-(5-(5-amino-1H-pyrazol-1-yl)-1,3,4-thiadiazol-2-yl)-4-(3-cyclopropoxypyridin-2-yl)-3-(2-methoxyethoxy)-2-oxo-2H-pyran-6-carboxamide], for which the IC50 under setting [1] was 0.5 to 1 nM.
